One data set has as its target T1, human mGluR2 receptor (Homo sapiens, UniProt Q14416).
T1 construct: expressed in transfected cells; host or cells: CHO cells (membrane preparation)
Put plainly: [35S]GTPγS binding assay (GTPγS-PAM): positive allosteric modulation in presence of glutamate at EC25, membranes from transfected CHO cells. It counts as biochemical. The conditions noted are these: in presence of mGluR2 agonist glutamate at predetermined EC25 concentration, averages of duplicate values of 11-concentration response curves, read-out: GTPgS - hR2 PAM pEC50 (converted). The gist of the method:
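Potentiation was read as filter-retained [35S]GTPγS (0.1 nM final, 30 min, 30° C.) after a 30 min, 30° C. preincubation of human mGluR2 CHO membranes (15 μg/well) with EC25 glutamate and 11 modulator concentrations spanning 0.3 nM-50 μM. The buffer was 50 mM HEPES pH 7.4, NaCl, MgCl2, 50 μM GDP and saponin. Cold 10 μM GTP defined nonspecific binding; data were fitted by a four-parameter logistic.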

T1 sequence (Q14416 19-872): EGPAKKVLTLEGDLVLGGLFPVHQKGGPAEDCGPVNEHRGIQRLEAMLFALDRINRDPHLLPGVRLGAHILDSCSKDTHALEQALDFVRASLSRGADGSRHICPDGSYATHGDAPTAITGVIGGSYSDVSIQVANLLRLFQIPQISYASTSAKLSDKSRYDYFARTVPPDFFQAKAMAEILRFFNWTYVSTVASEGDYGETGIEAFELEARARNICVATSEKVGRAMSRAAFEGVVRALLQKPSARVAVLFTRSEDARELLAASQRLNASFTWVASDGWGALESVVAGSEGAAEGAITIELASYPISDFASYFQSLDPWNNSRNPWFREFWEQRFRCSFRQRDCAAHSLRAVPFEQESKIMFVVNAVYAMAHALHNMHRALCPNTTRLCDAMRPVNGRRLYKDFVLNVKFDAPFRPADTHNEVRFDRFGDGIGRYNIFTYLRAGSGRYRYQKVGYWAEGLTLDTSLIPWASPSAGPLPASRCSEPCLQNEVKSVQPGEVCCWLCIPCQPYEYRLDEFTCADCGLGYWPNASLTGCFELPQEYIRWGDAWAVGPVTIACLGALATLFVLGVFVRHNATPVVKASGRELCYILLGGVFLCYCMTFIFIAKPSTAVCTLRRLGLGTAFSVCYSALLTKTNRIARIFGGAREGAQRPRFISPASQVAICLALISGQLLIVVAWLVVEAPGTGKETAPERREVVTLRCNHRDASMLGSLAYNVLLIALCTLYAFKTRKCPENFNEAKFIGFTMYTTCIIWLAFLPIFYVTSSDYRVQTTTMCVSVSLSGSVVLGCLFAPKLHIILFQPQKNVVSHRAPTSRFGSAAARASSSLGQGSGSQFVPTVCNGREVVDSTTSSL

`CC(C)CCn1ccc(-c2ccc(Oc3ccncc3)cc2)c(C#N)c1=O` [1-156] registered a melting point of 139 °C. The EC50 on human mGluR2 receptor was 501 nM.
`CC(C)CCn1ccc(-c2ccc(OCc3ccccn3)cc2)c(C#N)c1=O` [1-157] returned a melting point of 162 °C. The EC50 at human mGluR2 receptor is 398 nM.
Take `CC(C)CCn1ccc(-c2ccc(OCc3cccnc3)cc2)c(C#N)c1=O` [1-158]: the melting point worked out at 142 °C. For the same compound, at human mGluR2 receptor, the EC50 is 501 nM.
The compound `CC(C)CCn1ccc(-c2ccc(OCc3ccncc3)cc2)c(C#N)c1=O` [1-159] had a melting point of 171 °C. The EC50 on human mGluR2 receptor was 501 nM.
On to `CC(C)CCn1ccc(-c2ccc(OCc3ccncc3)cc2F)c(C#N)c1=O` [1-162], for which the melting point was 156 °C. The EC50 at human mGluR2 receptor was 398 nM.
As for `CC(C)CCn1ccc(-c2ccc(OCc3ccc(C(F)(F)F)nc3)cc2)c(C#N)c1=O` [1-163], the melting point turned out to be 202 °C. The EC50 at human mGluR2 receptor is 79.4 nM.
`CC(C)CCn1ccc(-c2ccc(OCc3ccc(Cl)nc3)cc2)c(C#N)c1=O` [1-164]: the melting point worked out at 165 °C. Also, the EC50 at human mGluR2 receptor was 158 nM.
`Cc1nc(COc2ccc(-c3ccn(CCC(C)C)c(=O)c3C#N)cc2)cs1` [1-169] registered a melting point of 144 °C. Moreover, the EC50 at human mGluR2 receptor is 501 nM.
In turn, `CNc1ccc(-c2ccn(CCC(C)C)c(=O)c2C#N)cc1` [1-171] yielded a melting point of 189 °C. At human mGluR2 receptor, the EC50 is 501 nM.
Turning to `CC(C)CCn1ccc(-c2ccc(N(C)C)cc2)c(C#N)c1=O` [1-172], the melting point amounted to 137 °C. Besides, the EC50 at human mGluR2 receptor was 126 nM.
For `CC(C)CCn1ccc(-c2ccc(CN(C)C)cc2)c(C#N)c1=O` [1-173], the melting point turned out to be 130 °C. For the same compound, the EC50 on human mGluR2 receptor was 6310 nM.
In the case of `CC(=O)Nc1ccc(-c2ccn(CCC(C)C)c(=O)c2C#N)cc1` [1-176], the melting point turned out to be 198 °C. Besides, the EC50 at human mGluR2 receptor is 5010 nM.
`CC(=O)N(C)Cc1ccc(-c2ccn(CCC(C)C)c(=O)c2C#N)cc1` [1-177] came in with a melting point of 112 °C. Also, the EC50 on human mGluR2 receptor is 3980 nM.
For `CC(=O)NCc1ccc(-c2ccn(CCC(C)C)c(=O)c2C#N)cc1` [1-179, 4-(4-(N-acetylmethyl)phenyl)-3-cyano-1-(3-methylbutyl)pyridine-2(1H)-one], in that order: 144 °C and 3160 nM.
In the case of `CC(C)CCn1ccc(-c2ccc(NCC#N)cc2)c(C#N)c1=O` [1-186], the melting point came to 269 °C. Moreover, the EC50 on human mGluR2 receptor is 794 nM.
In turn, `CC(C)CCn1ccc(-c2ccc(NCCC3(C)OCCO3)cc2)c(C#N)c1=O` [1-192] had a melting point of 119 °C. Besides, at human mGluR2 receptor, the EC50 was 501 nM.
The compound `CC(C)CCn1ccc(-c2ccc(NCc3cccc(F)c3)cc2)c(C#N)c1=O` [1-199] registered a melting point of 136 °C. The EC50 on human mGluR2 receptor is 63.1 nM.
In the case of `CC(C)CCn1ccc(-c2ccc(NCc3ccc(F)cc3)cc2)c(C#N)c1=O` [1-200], the melting point was determined as 162 °C. Moreover, the EC50 at human mGluR2 receptor is 79.4 nM.
As for `CC(C)CCn1ccc(-c2ccc(NCc3cccc(Cl)c3)cc2)c(C#N)c1=O` [1-202], the melting point is 146 °C. Besides, the EC50 on human mGluR2 receptor is 31.6 nM.
The compound `COc1ccc(CNc2ccc(-c3ccn(CCC(C)C)c(=O)c3C#N)cc2)cc1` [1-203] gave a melting point of 173 °C. Moreover, the EC50 at human mGluR2 receptor is 316 nM.
`CC(C)CCn1ccc(-c2ccc(NCc3cccc(C#N)c3)cc2)c(C#N)c1=O` [1-204] showed a melting point of 157 °C. Moreover, the EC50 on human mGluR2 receptor is 25.1 nM.
With `CC(C)CCn1ccc(-c2ccc(NCc3ccc(C#N)cc3)cc2)c(C#N)c1=O` [1-206], the melting point came to 209 °C. Also, the EC50 on human mGluR2 receptor is 50.1 nM.
Compound `CC(C)CCn1ccc(-c2ccc(NCc3ccncc3)cc2)c(C#N)c1=O` [1-210] gave a melting point of 73 °C. Moreover, the EC50 at human mGluR2 receptor was 1000 nM.
On to `CC(C)CCn1ccc(-c2ccc(CN(C)Cc3ccncc3)cc2)c(C#N)c1=O` [1-211], for which the melting point amounted to 142 °C. In addition, the EC50 on human mGluR2 receptor is 631 nM.
`CC(C)CCn1ccc(-c2ccc(CN(C)Cc3ccccn3)cc2)c(C#N)c1=O` [1-212] displayed a melting point of 294 °C. Also, the EC50 at human mGluR2 receptor is 1000 nM.
Regarding `CC(C)CCn1ccc(-c2cccc(NS(C)(=O)=O)c2)c(C#N)c1=O` [1-215], the melting point is 70 °C. On human mGluR2 receptor, the EC50 was 3160 nM.
`CC(C)CCn1ccc(-c2ccc(N3CCC(O)CC3)cc2)c(C#N)c1=O` [1-220] displayed a melting point of 213 °C. Further, the EC50 at human mGluR2 receptor was 1260 nM.
As to `CC(C)CCn1ccc(-c2ccc(N3CCOCC3)cc2)c(C#N)c1=O` [1-223, 3-cyano-4-(4-(N-morpholyl)phenyl)-1-(3-methylbutyl)pyridine-2(1H)-one], the melting point was 171 °C. Also, the EC50 on human mGluR2 receptor was 2000 nM.
Compound `COc1cc(-c2ccn(CCC(C)C)c(=O)c2C#N)ccc1N1CCOCC1` [1-225] returned a melting point of 151 °C. For the same compound, the EC50 at human mGluR2 receptor was 2000 nM.
On to `CC(C)CCn1ccc(-c2ccc(N3CCOCC3)c(Br)c2)c(C#N)c1=O` [1-226], for which the melting point came out at 118 °C. Further, at human mGluR2 receptor, the EC50 was 126 nM.
Compound `CC(C)CCn1ccc(-c2ccc(N3CC(C)OC(C)C3)cc2)c(C#N)c1=O` (stereo not drawn) [1-227] displayed a melting point of 162 °C. For the same compound, the EC50 at human mGluR2 receptor is 501 nM.
For `CC(C)CCn1ccc(-c2ccc(N3CCOc4ccccc43)cc2)c(C#N)c1=O` [1-228], in that order: 148 °C and 79.4 nM.
The compound `CC(=O)N1CCN(c2cccc(-c3ccn(CCC(C)C)c(=O)c3C#N)c2)CC1` [1-230] came in with a melting point of 143 °C. For the same compound, on human mGluR2 receptor, the EC50 is 501 nM.
For `CC(=O)c1ccc(-c2ccn(CCC(C)C)c(=O)c2C#N)cc1` [1-238], in that order: 130 °C and 3160 nM.
The compound `COC(=O)CCc1ccc(-c2ccn(CCC(C)C)c(=O)c2C#N)cc1` [1-239] had a melting point of 120 °C. In addition, the EC50 at human mGluR2 receptor was 794 nM.
`CC(C)CCn1ccc(-c2ccc(CC(=O)N(C)C)cc2)c(C#N)c1=O` [1-244] displayed a melting point of 122 °C. In addition, the EC50 on human mGluR2 receptor was 6310 nM.
Take `CC(C)CCn1ccc(-c2ccc(C(=O)N(C)Cc3ccccc3)cc2)c(C#N)c1=O` [1-245]: the melting point lay within 135 to 140 °C. Further, on human mGluR2 receptor, the EC50 was 794 nM.
`CC(C)CCn1ccc(-c2ccc(C(=O)N3CCN(Cc4ccc(OC(F)(F)F)c(Cl)c4)CC3)cc2)c(C#N)c1=O` [1-247] gave a melting point of 217 °C. For the same compound, on human mGluR2 receptor, the EC50 is 398 nM.
Turning to `CC(C)CCn1ccc(-c2ccc3c(c2)CCO3)c(C#N)c1=O` [1-251], the melting point amounted to 117 °C. On human mGluR2 receptor, the EC50 is 1260 nM.
As to `CC(C)CCn1ccc(-c2ccc3c(c2)OCO3)c(C#N)c1=O` [1-252], the melting point was in the range of 120 to 121 °C. The EC50 on human mGluR2 receptor is 6310 nM.
For `CC(C)CCn1ccc(-c2ccc(CC#N)cc2)c(C#N)c1=O` [1-254], in that order: 122 °C and 2510 nM.
For `CC(C)CCn1ccc(-c2ccc(C(C#N)c3ccn(CCC(C)C)c(=O)c3C#N)cc2)c(C#N)c1=O` (stereo not drawn) [1-255], the melting point came out at 233 °C. Also, the EC50 at human mGluR2 receptor is 794 nM.
For `CSc1ccc(-c2ccn(CCC(C)C)c(=O)c2C#N)cc1` [1-256], in that order: 128 °C and 158 nM.
The compound `COc1ccc(CCc2ccn(CCC(C)C)c(=O)c2C#N)cc1` [1-265] came in with a melting point of 88 °C. At human mGluR2 receptor, the EC50 was 1260 nM.
Consider `CC(C)CCn1ccc(C#Cc2ccc(N(C)C)cc2)c(C#N)c1=O` [1-270], for which the melting point amounted to 166 °C. Also, the EC50 at human mGluR2 receptor was 100 nM.
For `CC(C)CCn1ccc(OCc2ccccc2)c(C#N)c1=O` [1-275], in that order: 174 °C and 1260 nM.
The compound `CC(C)CCn1ccc(OCc2cccc(OC(F)(F)F)c2)c(C#N)c1=O` [1-279] showed a melting point of 116 °C. Further, the EC50 at human mGluR2 receptor is 398 nM.
Compound `COc1ccc(Oc2ccn(CCC(C)C)c(=O)c2C#N)cc1` [1-282] came in with a melting point of 153 °C. Also, the EC50 at human mGluR2 receptor is 794 nM.
For `CC(C)CCn1ccc(OCc2ccc(OC(F)F)cc2)c(C#N)c1=O` [1-284], in that order: 190 °C and 631 nM.
In the case of `CC(C)CCn1ccc(OC2Cc3ccccc3C2)c(C#N)c1=O` [1-288], the melting point was 169 °C. Besides, the EC50 on human mGluR2 receptor was 1000 nM.
For `CCOC(=O)c1ccc(-c2cccc(COc3ccn(CCC(C)C)c(=O)c3C#N)c2)cc1` [1-290], in that order: 148 °C and 158 nM.
`CC(C)CCn1ccc(OCc2ccc(CN3CCOCC3)cc2)c(C#N)c1=O` [1-292] gave a melting point of 154 °C. In addition, at human mGluR2 receptor, the EC50 was 1260 nM.
For `CC(C)CCn1ccc(OCCN(C)Cc2cccc(F)c2)c(C#N)c1=O` [1-293], in that order: 209 °C and 2510 nM.
For `CCCCn1ccc(Nc2ccc(Oc3cccnc3)cc2)c(C#N)c1=O` [1-296], in that order: 151 °C and 1580 nM.
Regarding `CCCCn1ccc(N2CCN(Cc3cc(F)cc(C(F)(F)F)c3)CC2)c(C#N)c1=O` [2-001], the melting point was 183 °C. Also, on human mGluR2 receptor, the EC50 was 3160 nM.
For `CCCCn1ccc(N2CCN(Cc3ccc(OC(F)(F)F)c(Cl)c3)CC2)c(C#N)c1=O` [2-002], in that order: 127 °C and 316 nM.
`CCCCn1ccc(N2CCN(Cc3ccc(OCC4CC4)c(Cl)c3)CC2)c(C#N)c1=O` [2-003] returned a melting point of 134 °C. Also, the EC50 on human mGluR2 receptor is 158 nM.

One may read the melting point as the temperature, or range, at which the solid turns liquid.

The record behind these values is US9266834B2, “1, 4-disubstituted 3-cyano-pyridone derivatives and their use as positive allosteric modulators of MGLUR2-receptors” (JANSSEN PHARMACEUTICALS, INC., priority 2006, dated 2016).
